Assay results: patent US20190192510A1, “GPR119 AGONIST” (NIPPON CHEMIPHAR CO., LTD., priority 2010, published 2019)
Like-named read-outs stand apart in the source and are kept apart here.

Experiments:
human GPR119 = target: T1, human GPR119 (Homo sapiens, UniProt Q8TDV5); experiment: Intracellular cAMP increase in human GPR119 introduced cells (Pharmacological Experiments 1 and 2); type: cell-based
T1 sequence (Q8TDV5 1-335): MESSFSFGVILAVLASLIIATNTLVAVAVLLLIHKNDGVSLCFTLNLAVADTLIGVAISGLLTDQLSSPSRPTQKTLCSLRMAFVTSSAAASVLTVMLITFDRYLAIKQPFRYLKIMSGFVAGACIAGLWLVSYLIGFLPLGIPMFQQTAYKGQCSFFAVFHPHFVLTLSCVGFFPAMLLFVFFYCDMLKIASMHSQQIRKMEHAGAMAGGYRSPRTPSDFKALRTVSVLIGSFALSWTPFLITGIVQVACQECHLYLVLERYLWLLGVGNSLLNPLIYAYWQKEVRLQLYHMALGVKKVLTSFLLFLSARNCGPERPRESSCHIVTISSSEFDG
From the text: The GPR119 agonist effect is studied by measuring the effect of an analyte on increase of intracellular amount of cAMP in human GPR119 introduced cells. The testing method is described below.
Human GPR119 gene (NM 178471) is purchased from ATCC (ATCC No. 10807349), and is amplyfied according to PCR to form BamHI site at 5′ side and Apa I site at 3′ side. The forward side primer is […] (sequence No. 1), and the reverse side primer is […] (sequence No. 2). The PCR conditions are described below.
(§1) The double-stranded DNA is thermally denatured using a DNA polymerase (KOD-Plus-Ver. 2; TOYOBO #KOD-211) at 98° C. for 10 seconds in one cycle. The denatured single-stranded DNA is annealed with the primers at 55° C. for 30 seconds. The DNA is subjected to an extension reaction at 68° C. for 1 minute and 15 seconds. The above-mentioned steps are repeated in 35 cycles. The PCR product is inserted into pcDNA5/FRT/TO (Invitrogen #V6520-20) plasmid. Flp-in T-Rex-293 cells (Invitorogen #R78007) are transfected with the obtained plasmid. The method of transfection is conducted in accordance with the protocol of the product.
The stable cell line expressing human GPR119 prepared in the above-mentioned method is plated on a 96-well plate at the concentration of 2,500 cells/well using Dulbecco's Modified Eagle Medium (DMEM) containing 10% fetal bovine serum (FBS). Twenty-four hours after plating, tetracyclin (Invitrogen #Q10019) is added at the final concentration of 20 ng/mL to induce hGPR119 gene expression. Twenty-four hours after, the medium is removed, and the cells are stimulated with an assay buffer (0.5 mM IBMX PBS(−)) containing the test compound at 37° C. for 30 minutes. The amount of the intracellular cAMP is measured using a commercially available kit (HitHunter™ cAMP XS+ Assay: GE Healthcare #90007503) and a reader (FLUOstar Optima: BMG LABTECH). The test compound is dissolved in 100% DMSO, and added at the final concentration of 1%.
Human GPR119 gene (NM 178471) was purchased from ATCC (ATCC No. 10807349), and is amplyfied according to PCR to form BamHI site at 5′ side and Apa I site at 3′ side. The primers were […] (sequence No. 1) and […] (sequence No. 2). The PCR conditions are described below.
as §1, with “was” for “is”, “were” for “are”
The stable cell line expressing human GPR119 prepared in the above-mentioned method was plated on a 96-well plate at the concentration of 2,500 cells/well using Dulbecco's Modified Eagle Medium (DMEM) containing 10% fetal bovine serum (FBS). Twenty-four hours after plating, tetracyclin (Invitrogen #Q10019) was added at the final concentration of 20 ng/mL to induce hGPR119 gene expression. Twenty-four hours after, the medium was removed, and the cells were stimulated with an assay buffer (0.5 mM IBMX PBS (−)) containing the test compound at 37° C. for 30 minutes. The amount of the intracellular cAMP was measured using a commercially available kit (HitHunter™ cAMP XS+ Assay: GE Healthcare #90007503) and a reader (FLUOstar Optima: BMG LABTECH). The test compound was dissolved in 100% DMSO, and added at the final concentration of 1%.
The examination was performed by the method similar to Example 61 Pharmacological experiment 1-(1), 1-(2).

normal mice = experiment: Oral glucose tolerance test in normal mice (Pharmacological Experiment 3); type: in vivo
Procedure: Oral glucose tolerance is tested in normal mice.
In this experiment, the inhibitory effect of a test compound on glycemic excursions is examined after glucose administration in normal mice. The test methods are described below.
Male 9-week-old ICR mice, habituated to the experimental environment for two weeks, are fasted for 18 hours and used to this experiment. Mice are orally administered the analyte or vehicle (polyethylene glycol 400:ethanol:Tween 80=8:1:1). After 30 minutes, they were orally given glucose at the dose of 3 g/kg.
Blood is collected at just before the analyte or vehicle administration (−30 minutes), immediately before glucose challenge (0 minute), 20 minutes, 40 minutes, 60 minutes, and 120 minutes after glucose ingestion to determine blood glucose levels.
Inhibition rate (%) of the test compound versus vehicle in areas under the glycemic excursion curve between 0 minute and 120 minutes after glucose challenge is determined. […]
Blood was collected at just before the test compound or vehicle administration (−30 min), immediately before glucose challenge (0 min), 20 min, 40 min, 60 min and 120 min after glucose ingestion and then blood glucose levels were determined.
Inhibition rate (%) of the test compound versus vehicle in areas under the glycemic excursion curve between 0 and 120 min after glucose challenge was determined.

[1] = Table 12, Flp-in T-Rex-293 cells stably expressing hGPR119, intracellular cAMP, 37° C. for 30 minutes, read-out: EC50

SMILES | melting point [°C] | EC50 (human GPR119; [1]) [nM] | EC50 (human GPR119) [nM] | further results
CC1CN(C(=O)OC(C)(C)C)CC=C1c1cnc(Cn2ccc3c(F)c(S(C)(=O)=O)c(F)cc32)cn1 (centres unmarked) [Example 19, tert-Butyl 4-[5-(4,6-difluoro-5-methanesulfonylindol-1-ylmethyl)pyrazin-2-yl]-3-methyl-3,6-dihydro-2H-pyridine-1-carboxylate] |  |  | 82.8 | 
CC(C)OC(=O)N1CC=C(c2cnc(Cn3ccc4c(F)c(S(C)(=O)=O)c(F)cc43)cn2)C(C)C1 (centres unmarked) [Example 30, Isopropyl 4-[5-(4,6-difluoro-5-methanesulfonylindol-1-ylmethyl)pyrazin-2-yl]-3-methyl-3,6-dihydro-2H-pyridine-1-carboxylate] |  |  |  | EC50 (human GPR119; Table 13, Pharmacological experiment 2, method similar to Example 61, read-out: EC50): 137 nM
CC(C)(C)OC(=O)N1CC=C(c2cnc(COc3ccc(-n4cncn4)cc3)cn2)CC1 [Example 13, tert-Butyl 4-[5-[4-(1,2,4-triazol-1-yl)phenoxymethyl]pyrazin-2-yl]-3,6-dihydro-2H-pyridine-1-carboxylate] | 152 to 154 | 130 |  | 
CC(C)(C)OC(=O)N1CCC(c2cnc(Cn3ccc4cc(S(C)(=O)=O)cnc43)nc2)CC1 [Example 46, tert-Butyl 4-[2-(5-methanesulfonyl-1H-pyrrolo[2,3-b]pyridin-1-ylmethyl)pyrimidin-5-yl]piperidine-1-carboxylate] |  |  | 95 | 

Second part, led by results:

melting point [°C] | EC50 (human GPR119; [1]) [nM] | SMILES | EC50 (human GPR119) [nM] | further results
176 to 179 | 110 | CC(C)(C)OC(=O)N1CC=C(c2cnc(COc3ccc(S(C)(=O)=O)c(F)c3F)cn2)CC1 [Example 18, tert-Butyl 4-[5-(2,3-difluoro-4-methanesulfonylphenoxymethyl)pyrazin-2-yl]-3,6-dihydro-2H-pyridine-1-carboxylate] |  | 
 | 13.8 | CC(C)(C)OC(=O)N1CCC(c2cnc(Cn3ccc4cc(S(C)(=O)=O)ccc43)cn2)CC1 [Example 9, tert-Butyl 4-[5-(5-methanesulfonylindol-1-ylmethyl)pyrazin-2-yl]piperidine-1-carboxylate] |  | Inhibition rate (%) (normal mice; 1 mg/kg oral, male ICR mice, area under glycemic excursion curve 0-120 min after glucose 3 g/kg, versus vehicle): 31.1%; inhibitory effect on glycemic excursions (normal mice; result in words, refers to Table 14): excellent inhibitory effect on glycemic excursions; GPR119 agonist effect (human GPR119; result in words, refers to Tables 12 and 13): excellent GPR119 agonist effect
